Results as given in patent US8894993B2, “Mitochondria-targeted antioxidants” (Natreon Inc., priority 2006, dated 2014).

What was measured:
[1] = system: Catalase activity in liver; assay: Catalase activity in liver of mice after restraint stress; format: in vivo, Swiss albino mice; settings: 25 mg/Kg p.o. 7 days, control 3.9
Experimental: (§1) Swiss albino mice (20±2 g) were fed orally with—(a) 3-OH-DBP and (b) 3,8-(OH)2-DBP (each 25 mg/Kg b.w. per day, for 7 days). In case of the controls, only vehicle (0.8% carboxymethyl cellulose in water) was administered for seven days of the experiment. All the animals of all the groups were subjected to restraint stress (for 60 minutes) on the seventh day of the experiment, 2 hours after drug administration, according to a published method [Figueiredo, H. F., Bodie, B. L., Tauchi, M., Dolgas, C. M. and Herman, J. P. 2003. Endocrinology, 144, 5249-5258]. The model was selected in the present experiment, because restraint stress is a widely used model of acute oxidative stress. Immediately after being exposed to stress, the animals were sacrificed, blood was collected for analysis by HPLC of ATP and related nucleotides [Smolenska, Z., Kaznowska, Z., Zarowny, D., Simmonds, H. A. and Smolenski, R. T. 1999. […] AEC (adenylate energy charge) was calculated according to the method of Atkinson and Walton [Atkinson D E & Walton G M, Adenosine triphosphate conservation in metabolic regulation, J Biol Chem, 242 (1967) 3239] and TAN (total adenine nucleotides) was calculated according to an established method [Spencer M K & Katz A, Role of glycogen in control of glycolysis and IMP formation in human muscle during exercise, Am J Physiol, 260 (1991) E859]. […]

[2] = system: stress-induced lipid peroxidation of mouse liver mitochondria; assay: Stress-induced lipid peroxidation of mouse liver mitochondria (thiobarbituric acid reaction); format: in vivo, Swiss albino mice; settings: oral each 5 mg/Kg b.w. per day for 5 days, hypoxic stress, control 0.495
Experimental: Swiss albino mice (20±g) were fed orally with—(a) 3,8-(OH)2-DBP; (b) CoQ10; (c) a combination of 3,8-(OH)2-DBP and CoQ10 and (d) 3,8-(OH)2-DBP and CoQ10 in a clathrated form with fusoms (each 5 mg/Kg b.w.), per day, for 5 days. The animals were subjected to hypoxic stress for 1 hour each day for 3 days from the 3rd day of the experiment. After the stipulated time-period, brain and liver of the animals were collected and mitochondria from the liver were separated as described previously (Liu Y, Deng F, Zhao R and Qu S, Chemosphere, 40(8):851-854, 2000). Lipid peroxidation in brain and liver-mitochondria was estimated by the method of Ohkawa et al. (Ohkawa H, Ohishi N and Yagi K, Assay for lipid peroxides in animal tissues by thiobarbituric acid reaction. Anal. Biochem., 95:351-358, 1979).

[3] = DBP products in mice liver mitochondria before and after DBPs treatment, HPTLC; format: in vivo, Swiss Albino mice; settings: one hour after i.p. 4:1 mixture of 3,8-(OH)2-DBP and 3-OH-DBP 20 mg/Kg
Experimental: Mitochondria were isolated from heart and liver of chicken, goat and mice following a published procedure (Liu Y, Deng F, Zhao R and Qu S, Chemosphere, 40(8):851-854, 2000). […] The tissue was cut into small pieces, homogenized and centrifuged at 900 g for one minute. The supernatant was again centrifuged twice, for 20 minutes each time at 900 g. The sediment at each step was discarded. The clear supernatant was centrifuged twice at 12,000 g, 20 minutes each time, to form pellets of a mitochondria-enriched fraction. The fraction was divided into two parts. One part was resuspended in a measured volume of distilled water and sonicated (10 min×2). […] The two extracts were subjected to comprehensive HPTLC and HPLC analyses for detection and quantitation of DBPs and their equivalents. […] One hour after administration the animals were sacrificed and mitochondria from liver were isolated and analyzed as described for Example 6. […] Mobile Phase—Chloroform:Methanol 90:10 Sample application—CAMAG LINOMAT 5 (Automated applicator) Detection—240 nm (CAMAG TLC SCANNER 3) 3-OH-DBP and 3,8-(OH)2-DBP (and their conjugates) were detected in mitochondria of control mice by HPTLC. Administration of DBPs to the animals increased the amount of DBPs and its products in mitochondria as detected by using authentic markers of the two DBPs (Table 2).

[4] = system: Blood levels of ATP and energy related indices; assay: Blood ATP and energy related indices in mice after restraint stress; format: in vivo, Swiss albino mice; settings: 25 mg/Kg p.o. 7 days
Experimental: Swiss albino mice (20±2 g) were fed orally with—(a) 3-OH-DBP and (b) 3,8-(OH)2-DBP (each 25 mg/Kg b.w. per day, for 7 days). In case of the controls, only vehicle (0.8% carboxymethyl cellulose in water) was administered for seven days of the experiment. All the animals of all the groups were subjected to restraint stress (for 60 minutes) on the seventh day of the experiment, 2 hours after drug administration, according to a published method [Figueiredo, H. F., Bodie, B. L., Tauchi, M., Dolgas, C. M. and Herman, J. P. 2003. Endocrinology, 144, 5249-5258]. The model was selected in the present experiment, because restraint stress is a widely used model of acute oxidative stress. Immediately after being exposed to stress, the animals were sacrificed, blood was collected for analysis by HPLC of ATP and related nucleotides [Smolenska, Z., Kaznowska, Z., Zarowny, D., Simmonds, H. A. and Smolenski, R. T. 1999. Rheumatology, 38, 997-1002; Komarova, S. V., Mosharov, E. V., Vitvitsky, V. M. and Ataullakhanov, F. I. 1999. Blood Cell Mol. Dis., 25(13), 170-179; Marquardt, D. L., Gruber, H. E. and Wasserman, S. I. 1984. Proc. Natl. Acad. Sci., 81, 6192-6196], and liver was collected for measurement of superoxide dismutase and catalase activities [Zielinski, S, and Pörtner, H. 2000. Comparative Biochem. Physiol. Part B, 125, 147-[60]. AEC (adenylate energy charge) was calculated according to the method of Atkinson and Walton [Atkinson D E & Walton G M, Adenosine triphosphate conservation in metabolic regulation, J Biol Chem, 242 (1967) 3239] and TAN (total adenine nucleotides) was calculated according to an established method [Spencer M K & Katz A, Role of glycogen in control of glycolysis and IMP formation in human muscle during exercise, Am J Physiol, 260 (1991) E859].

[5] = Stability of reduced CoQ10 (CoQH2) by 3,8-(OH)2-DBP at different pH, HPLC; format: physicochemical
[6] = system: Superoxide dismutase (SOD) activity in liver; assay: Superoxide dismutase activity in liver of mice after restraint stress; format: in vivo, Swiss albino mice; settings: 25 mg/Kg p.o. 7 days, control 0.6
Experimental: as §1

## O=c1oc2cc(O)ccc2c2ccc(O)cc12 [3,8-(OH)2-DBP, 3,8-dihydroxydibenzo-α-pyrone]
[1]
  Catalase activity in liver: 3.4 U/mg tissue
[2]
  OD Values at 532 nm (lipid peroxidation): 0.395
[3]
  Amount in mitochondria after DBP treatment: 2.3 nmol/gm wet wt
[4]; mean ± SEM of 6, control 0.14 ± 0.02
  ADP: 0.09 ± 0.01 µM
[4]; mean ± SEM of 6, control 0.67 ± 0.03
  ATP: 0.64 ± 0.05 µM
[4]; mean ± SEM of 6, control 0.76 ± 0.03
  TAN: 0.76 ± 0.06 µM
[4]; mean ± SEM of 6, control 0.89 ± 0.01
  AEC: 0.90 ± 0.01
[4]; mean ± SEM of 6, control 4.90 ± 0.32
  ATP/ADP ratio: 6.96 ± 0.49
[5]; autoxidation of CoQH2, pH 8, 80 min
  Regenerated CoQ10 in presence of 3,8-(OH)2-DBP: 151.28 µg/mL
[5]; autoxidation of CoQH2, pH 8, 100 min
  Regenerated CoQ10 in presence of 3,8-(OH)2-DBP: 202.31 µg/mL
[6]
  SOD activity in liver: 0.98 U/gm tissue
